Experiments:
[1] = system: human fibroblasts; test: Direct induction from human fibroblasts into insulin-producing cells; amount of insulin secreted; format: cell-based
Excerpt: (§1) The insulin-producing cell produced by the present invention process can be detected, identified, and isolated using, for example, a morphological change of a cell, a characteristic property of an insulin-producing cell, or a specific marker (e.g., an anti-insulin antibody). Moreover, the secretory capacity of the obtained insulin-producing cell can also be evaluated by quantifying the amount of secreted insulin using sandwich ELISA.
The human fibroblasts used as the material were purchased from DS Pharma Biomedical Co., Ltd. The fibroblasts are derived from human skin.
Human fibroblasts were seeded in 35-mm dishes coated with gelatin (Cat#: 190-15805, manufactured by Wako Pure Chemical Industries, Ltd.) at 5×10^4 cells/dish, and cultured in DMEM medium (manufactured by Gibco) supplemented with 10% fetal bovine serum (FBS), 100 U/mL penicillin, and 100 μg/mL streptomycin until confluent under conditions of 37° C. and 5% CO2. Note that DMEM refers to Dulbecco's Modified Eagle's Medium.
The medium of dishes of the human fibroblasts described above was replaced with the differentiation induction medium described below.
Differentiation induction medium: Advanced DMEM/F-12 (Cat#: 12634010; manufactured by Gibco) supplemented with ITS-X (Cat#: 51500056, manufactured by Gibco), non-essential amino acids (NEAA; Cat#: 11140050, manufactured by Gibco), Glutamine (manufactured by Gibco; final concentration: 2 mmol/L), Nicotinamide (Cat#: 72340-10OG, manufactured by Sigma-Aldrich; final concentration: 10 mmol/L), Exendin-4 (Cat#: av120214, manufactured by Abcam; final concentration: 100 ng/mL), 100 U/mL penicillin, 100 μg/mL streptomycin, insulin, and low molecular weight compounds described below, with or without addition of 10% fetal bovine serum (FBS, manufactured by Hyclone).
Subsequently, the cells were cultured under conditions of 37° C. and 5% CO2 while the medium was changed to the medium of the same composition every three days. […]

[2] = system: human adipose tissue-derived mesenchymal stem cells (AdMSC); test: Direct induction from human adipose tissue-derived mesenchymal stem cells (AdMSC) into insulin-producing cells; amount of insulin secreted; format: cell-based; conditions: FIG. 5; 120 μg/mL insulin; cultured 14 days
Excerpt: as §1
Human mesenchymal stem cells isolated from adipose tissue were purchased from Takara Bio Co., Ltd.
Human mesenchymal stem cells were seeded in 35-mm dishes coated with gelatin (Cat#: 190-15805, manufactured by Wako Pure Chemical Industries, Ltd.) at 5×10^4 cells/dish, and cultured in Mesenchymal Stem Cell Growth Medium 2 (Cat#: C-28009; manufactured by Takara Bio Co., Ltd.) supplemented with 100 U/mL penicillin and 100 μg/mL streptomycin until the cells were almost confluent under conditions of 37° C. and 5% CO2.
The medium of dishes of the human mesenchymal stem cells described above was replaced with the differentiation induction medium described below. […]

Molecule	insulin secretion / secretory capacity of induced cells by combination of low molecular weight compounds ([1]; FIG. 4, 3C (CHIR99021, BRD7389, forskolin) without BRD7389, or with BI-D1870 5 μM or 10 μM instead of BRD7389, no LY294002, 14 days)	amount of insulin secreted with a high concentration of insulin in the differentiation induction medium [2]	increase of the amount of insulin secretion by induction with a high concentration of insulin ([1]; FIG. 2, 120 μg/mL vs 20 μg/mL insulin in differentiation induction medium, cultured 14 days)	amount of insulin secreted as a function of insulin concentration in the differentiation induction medium ([1]; FIG. 3, insulin up to 100 μg/mL, cultured 14 days)
CC(C)CCN1c2nc(Nc3cc(F)c(O)c(F)c3)ncc2N(C)C(=O)C1C (stereo not shown) [BI-D1870, reference compound]	insulin-producing cells with a higher secretory capacity were also obtained	–	–	–
insulin: Human recombinant insulin (Cat#: 093-06351; Wako) added to the differentiation induction medium	–	increased markedly	about 3 times	the greater was the amount of insulin secreted

From US20220025336A1, “METHOD FOR PRODUCING INSULIN-PRODUCING CELLS, AND COMPOSITION” (KATAOKA CORPORATION, priority 2018, published 2022)
